{"source": "paper PMC7377239", "about": "“Cardiovascular Effects of Polychlorinated Biphenyls and Their Major Metabolites” (Environmental Health Perspectives, 2020)", "system": "iCell cardiomyocytes (human iPSC-derived cardiomyocytes)", "experiment": "Intracellular Ca2+ flux / beating parameters in iCell cardiomyocytes (FLIPR tetra), 90 min or 24 h", "assay_type": "cell-based", "settings": "for activity at 0.01 µM / activity at 0.1 µM / activity at 1 µM / activity at 10 µM / activity at 100 µM: Homo sapiens, Cardiomyocyte, 0.00 µM = 100.00; for activity at 0.1 µM: 0.10 µM", "how_it_was_run": "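Gelatin-plated iCell cardiomyocytes (5,000/well) were dye-loaded for 2 h at 37 °C, then exposed for 90 min or 24 h to PCBs/metabolites (5× plates at 0.05–500 µM; 0.5% DMSO final) in triplicate. Ca2+ flux was read for 100 s at 8 Hz and 37 °C. Peak height, frequency, spacing CV and decay/rise ratio were vehicle-normalized and fitted with a four-parameter logistic model, with POD set at 1 SD of vehicle.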", "key": {"[1]": {"settings": "1.5 h, read-out: cm.amp.avg.90min"}, "[2]": {"settings": "1.5 h, read-out: cm.amp.cv.90min"}, "[3]": {"settings": "1.5 h, read-out: cm.decay.rise.90min"}, "[4]": {"settings": "1.5 h, read-out: cm.spacing.cv.90min"}, "[5]": {"settings": "24 h, read-out: cm.amp.avg.24hrs"}, "[6]": {"settings": "24 h, read-out: cm.amp.cv.24hrs"}, "[7]": {"settings": "24 h, read-out: cm.decay.rise.24hrs"}, "[8]": {"settings": "24 h, read-out: cm.spacing.cv.24hrs"}}, "note": "Where two headings read alike, the source gives them in different places."}
{"smiles": "Oc1cc(Cl)cc(-c2cccc(Cl)c2)c1", "note": "[5-OH PCB 11]", "values": [{"measurement": "activity at 0.01 µM", "setting": "[1]", "result": 101, "unit": "%"}, {"measurement": "activity at 0.01 µM", "setting": "[2]", "result": 105, "unit": "%"}, {"measurement": "activity at 0.01 µM", "setting": "1.5 h, read-out: cm.bpm.90min", "result": 97.8, "unit": "%"}, {"measurement": "activity at 0.01 µM", "setting": "[3]", "result": 102, "unit": "%"}, {"measurement": "activity at 0.01 µM", "setting": "[4]", "result": 101, "unit": "%"}, {"measurement": "activity at 0.1 µM", "setting": "[1]", "result": 102, "unit": "%"}, {"measurement": "activity at 0.1 µM", "setting": "[2]", "result": 103, "unit": "%"}, {"measurement": "activity at 0.1 µM", "setting": "1.5 h, read-out: cm.bpm.90min", "result": 100, "unit": "%"}, {"measurement": "activity at 0.1 µM", "setting": "[3]", "result": 98.1, "unit": "%"}, {"measurement": "activity at 0.1 µM", "setting": "[4]", "result": 107, "unit": "%"}, {"measurement": "activity at 1 µM", "setting": "[1]", "result": 104, "unit": "%"}, {"measurement": "activity at 1 µM", "setting": "[2]", "result": 101, "unit": "%"}, {"measurement": "activity at 1 µM", "setting": "1.5 h, read-out: cm.bpm.90min", "result": 102, "unit": "%"}, {"measurement": "activity at 1 µM", "setting": "[3]", "result": 98.3, "unit": "%"}, {"measurement": "activity at 1 µM", "setting": "[4]", "result": 99.1, "unit": "%"}, {"measurement": "activity at 10 µM", "setting": "[1]", "result": 94.2, "unit": "%"}, {"measurement": "activity at 10 µM", "setting": "[2]", "result": 105, "unit": "%"}, {"measurement": "activity at 10 µM", "setting": "1.5 h, read-out: cm.bpm.90min", "result": 137, "unit": "%"}, {"measurement": "activity at 10 µM", "setting": "[3]", "result": 92, "unit": "%"}, {"measurement": "activity at 10 µM", "setting": "[4]", "result": 106, "unit": "%"}, {"measurement": "activity at 100 µM", "setting": "[1]", "result": 0, "unit": "%"}, {"measurement": "activity at 100 µM", "setting": "[2]", "result": 0, "unit": "%"}, {"measurement": "activity at 100 µM", "setting": "1.5 h, read-out: cm.bpm.90min", "result": 0, "unit": "%"}, {"measurement": "activity at 100 µM", "setting": "[3]", "result": 0, "unit": "%"}, {"measurement": "activity at 100 µM", "setting": "[4]", "result": 0, "unit": "%"}, {"measurement": "activity at 0.01 µM", "setting": "[5]", "result": 128, "unit": "%"}, {"measurement": "activity at 0.01 µM", "setting": "[6]", "result": 95.9, "unit": "%"}, {"measurement": "activity at 0.01 µM", "setting": "24 h, read-out: cm.bpm.24hrs", "result": 104, "unit": "%"}, {"measurement": "activity at 0.01 µM", "setting": "[7]", "result": 94.3, "unit": "%"}, {"measurement": "activity at 0.01 µM", "setting": "[8]", "result": 112, "unit": "%"}, {"measurement": "activity at 0.1 µM", "setting": "[5]", "result": 123, "unit": "%"}, {"measurement": "activity at 0.1 µM", "setting": "[6]", "result": 81.7, "unit": "%"}, {"measurement": "activity at 0.1 µM", "setting": "24 h, read-out: cm.bpm.24hrs", "result": 97.4, "unit": "%"}, {"measurement": "activity at 0.1 µM", "setting": "[7]", "result": 98.8, "unit": "%"}, {"measurement": "activity at 0.1 µM", "setting": "[8]", "result": 113, "unit": "%"}, {"measurement": "activity at 1 µM", "setting": "[5]", "result": 151, "unit": "%"}, {"measurement": "activity at 1 µM", "setting": "[6]", "result": 71, "unit": "%"}, {"measurement": "activity at 1 µM", "setting": "24 h, read-out: cm.bpm.24hrs", "result": 91.7, "unit": "%"}, {"measurement": "activity at 1 µM", "setting": "[7]", "result": 100, "unit": "%"}, {"measurement": "activity at 1 µM", "setting": "[8]", "result": 89.5, "unit": "%"}, {"measurement": "activity at 10 µM", "setting": "[5]", "result": 126, "unit": "%"}, {"measurement": "activity at 10 µM", "setting": "[6]", "result": 83.9, "unit": "%"}, {"measurement": "activity at 10 µM", "setting": "24 h, read-out: cm.bpm.24hrs", "result": 114, "unit": "%"}, {"measurement": "activity at 10 µM", "setting": "[7]", "result": 104, "unit": "%"}, {"measurement": "activity at 10 µM", "setting": "[8]", "result": 101, "unit": "%"}, {"measurement": "activity at 100 µM", "setting": "[5]", "result": 0, "unit": "%"}, {"measurement": "activity at 100 µM", "setting": "[6]", "result": 0, "unit": "%"}, {"measurement": "activity at 100 µM", "setting": "24 h, read-out: cm.bpm.24hrs", "result": 0, "unit": "%"}, {"measurement": "activity at 100 µM", "setting": "[7]", "result": 0, "unit": "%"}, {"measurement": "activity at 100 µM", "setting": "[8]", "result": 0, "unit": "%"}]}
{"smiles": "Oc1cc(Cl)cc(-c2cccc(Cl)c2)c1", "note": "[5-OH-PCB 11]", "values": [{"measurement": "effect on Ca2+ flux", "setting": "iPSC-CM, 100 μM, because of loss of cell viability", "result": "complete block of Ca^2+ flux"}]}
